Test results as given in patent US12403184B2, “Compositions and methods for treating neurodegenerative disroders” (priority 2018, dated 2025).
Where no end group is shown, it is not given here.

Legend:
mtDNA [1] = assay: mtDNA content in plasma of YAC128 mice by qPCR; type: in vivo, mouse; conditions: YAC128 mice at the age of 6 months
Description: For isolation of DNA from mouse plasma, the QIAamp DNA Blood Mini Kit (QIAGEN) was used. Briefly, 100-200 μl mouse plasma was subjected to total DNA extraction. Then the eluted DNA was diluted (1:5) to perform the qPCR experiment.

[2] = system: activated microglial cells; assay: Iba1 immunofluorescence of microglial activity in HD mouse striatum; type: in vivo
Description: For Iba1 immunofluorescence staining, mice were deeply anesthetized and transcardially perfused with 4% paraformaldehyde in PBS. Frozen brain sections (10 μm, coronal) were permeabilized with 0.1% Triton X-100 in TBS-T buffer followed by blocking with 5% normal goat serum. The brain sections were then incubated with anti-Iba1 antibody (1:500 dilution) for overnight at 4° C., followed by staining with Alex-488 anti-rabbit secondary antibody (1:2000 dilution). Iba1-immunopositive cells in the […] were quantitated by image J software.

Drp1 = Drp1 mitochondrial level and Drp1 polymerization by western blot in HD mouse striatal cells; type: cell-based
Description: Cells were washed with cold phosphate-buffered saline (PBS) and incubated on ice in mitochondrial lysis buffer (250 mM sucrose, 20 mM HEPES-NaOH, pH 7.5, 10 mM KCl, 1.5 mM MgCl2, 1 mM EDTA, 1 mM EGTA, protease inhibitor cocktail, and phosphatase inhibitor cocktail) for 30 min. The cells were scraped and then disrupted 15 times by repeated aspiration through a 25-gauge needle. Mouse brains were minced and homogenized in mitochondrial lysis buffer to release mitochondria. The homogenates were spun at 800×g for 10 min at 4° C., and the resulting supernatants were spun at 12,000×g for 20 min at 4° C. The pellets were washed with lysis buffer and spun at 12,000×g again for 20 min at 4° C. The final pellets were suspended in lysis buffer containing 1% Triton X-100 and were mitochondrial-rich lysate fractions. The mitochondrial protein voltage-dependent anion channel (VDAC) was used as a loading control.
(§1) Protein concentration was measured by protein assay dye reagents (Bio-rad). The protein was resuspended in Laemmli buffer, loaded on SDS-PAGE, and transferred onto nitrocellulose membranes. Membranes were probed with the indicated antibodies, followed by visualization with ECL. Representative blots have been cropped for presentation.

HdhQ111 cells = assay: Western blot of mitochondrial biogenesis and electron transport proteins in striatal cells; type: cell-based, mouse
Description: Mouse striatal cell lines HdhQ7 and Q111 cells are immortalized from knock-in mice carrying 7 and 111 CAG repeats, respectively, in the mouse htt gene. HdhQ7 and HdhQ111 purchased from CHDI Foundation were cultured in DMEM supplemented with 10% (v/v) heat-inactivated FBS, 1% (v/v) penicillin/streptomycin, and 400 μg/ml G418 at 33° C. with 5% CO2. Cells within 14 passages were used in all experiments.
as §1

mtDNA [3] = assay: Measurement of mtDNA content; type: cell-based, mouse; conditions: HdhQ111 cells, relative to TAT
Description: Total DNA was isolated from cells using Blood and Cell culture kit (QIAGEN), and then subject to qPCR using QuantiTect SYBR Green (QIAGEN). Quantitative PCR was performed using nuclear primers (GAPDH or Tert) and mtDNA primers (mt-CO2, mt-ND2, mt-CO1 and D-loop). Three technical replicates were performed for each biological sample, and the mtDNA abundance of each replicate were normalized against nuclear DNA using the 2-ΔΔCT method.

[4] = HdhQ111 cells, 1 μM/day for 4 days

YGRKKRRQRRRGGEDKRKT-NH2 [DA1, YGRKKRRQRRR-GG-EDKRKT-NH2]
increase of plasma mtDNA content (mtDNA [1]): abolished
inflammatory response (Iba1-marked activated microglial cells) ([2]; HD R6/2 mouse striatum, 12 weeks old): corrected
inflammatory response (Iba1-marked activated microglial cells) ([2]; YAC128 mouse striatum, 6 months old): corrected
Drp1 polymerization (Drp1; HD mouse striatal cells): abrogated
Drp1 translocation to the mitochondria (Drp1; HD mouse striatal cells, 1 μM/day for 4 days): abrogated
inhibitory effect on Drp1 tetramer formation (Drp1; upon ATAD3A knockdown): abolished upon ATAD3A knockdown
elevation of TFAM level by DA1 treatment (HdhQ111 cells; HD mutant cells with ATAD3A knockdown (siRNA)): ATAD3A knockdown abolished
nuclear-encoded mitochondrial respiratory chain components (HdhQ111 cells; HdhQ111 cells): no effect
PGC1α level (HdhQ111 cells; [4]): restored
TFAM level (HdhQ111 cells; [4]): restored
mtCO2 protein level (HdhQ111 cells; [4]): corrected
mtDNA copy number (mtDNA [3]): increased
